Data taken from EPA's ToxValDB 9.5.
Values joined by “and” are separate entries in the source; they are usually repeats but may differ in a detail not shown here. Identical values can stand only once. Each block holds one molecule with its values, some of them ahead of it.

Assays:
[1] = test system: Mus musculus; conditions: oral
[2] = test system: Rattus norvegicus
[3] = test system: Rattus norvegicus; conditions: oral
[4] = test system: Rattus norvegicus; remark: listed apart in the source
[5] = test system: Mus musculus; conditions: oral; for LD50: acute
[6] = test system: Rattus norvegicus; conditions: oral; remark: listed apart in the source
[7] = reproduction developmental, oral, drinking water, F, reproductive effects
[8] = reproduction developmental, duration: 90 days, oral, diet, F
[9] = reproduction developmental, duration: 90 days, oral, diet, F, Fischer 344
[10] = reproduction developmental, duration: 90 days, oral, diet, Fischer 344, generation: F1
[11] = reproduction developmental, duration: 90 days, oral, diet, generation: F1
[12] = reproduction developmental, diet, CD1, generation: F0
[13] = reproduction developmental, diet, CD1, generation: F1
[14] = reproduction developmental, diet, CD1, generation: F2
[15] = chronic, duration: 2 years, oral, diet, M/F, increased absolute and relative liver weight
[16] = subchronic, duration: 13 weeks, oral, diet, M/F, neurological dysfunction
[17] = chronic, duration: 2 years, oral, diet, M/F, reduced body weight
[18] = chronic, duration: 2 years, oral, diet, M/F, increased levels of serum proteins and increased liver weight
[19] = subchronic, duration: 13 weeks, oral, diet, Fischer 344
[20] = subchronic, duration: 13 weeks, diet, M, B6C3F1
[21] = short-term, duration: 28 days, gavage, M, Sprague-Dawley, Clinical Observation: Spontaneous locomotion decrease, Respiratory rate decrease, Prone position Eyelid closure Staggering gait Incomplete …
[22] = reproduction developmental, oral, M/F, reduced fertility index and reduced body weight of dams

SMILES: CNNC [1,2-Dimethylhydrazine]
LOAEL ([1]; chronic, duration: 5 months, diet, M, hepatic): 0.75 mg/kg-day

SMILES: Oc1ccccc1Cl [2-Chlorophenol]
LOAEL [2, 7]: 50 mg/kg-day
NOAEL [2, 7]: 5 mg/kg-day
NOAEL ([3]; reproduction developmental, duration: 364 days, drinking water, M/F, Sprague-Dawley, reproductive): 7.6 mg/kg-day

SMILES: Nc1ccc(Oc2ccc(N)cc2)cc1 [4,4'-Oxydianiline]
LD50 ([4]; acute, oral, gavage): ≥ 675 mg/kg and ≤ 775 mg/kg
NOAEL ([4]; developmental, oral, gavage, Sprague-Dawley): 10 mg/kg-day
LOAEL [4, 8]: 400 ppm
NOAEL [4, 8]: 100 ppm
LOAEL [4, 9]: 400 ppm
NOAEL [4, 9]: 100 ppm
LOAEL [4, 10]: 400 ppm
NOAEL [4, 10]: 100 ppm
LOAEL [4, 11]: 400 ppm
NOAEL [4, 11]: 100 ppm
NOAEL ([4]; reproduction developmental, oral, gavage, F, Sprague-Dawley): 10 mg/kg-day
LD50 ([5]; gavage): ≥ 635 mg/kg and ≤ 735 mg/kg
NOEL ([6]; subchronic, gavage, M, Sprague-Dawley, Food Consumption: decrease + Hematology: RBC decrease, R Hgb decrease, R RET increase, R Hct decrease, MCHC decrease, R APTT decrease, WBC …): 3 mg/kg-day

SMILES: Cc1ccc2[nH]c3cc4c(=O)c5cc(C)ccc5[nH]c4cc3c(=O)c2c1 [C.I. Pigment Red 122]
LD50 ([4]; acute, oral, gavage): ≥ 5000 mg/kg
LD50 ([5]; gavage): ≥ 5000 mg/kg
NOEL ([6]; subchronic, gavage, Sprague-Dawley): 1000 mg/kg-day

SMILES: CCOP(=O)(OCC)OC(=CCl)c1ccc(Cl)cc1Cl [Chlorfenvinphos]
LOAEL ([3]; chronic, duration: 104 weeks, diet, M/F, Wistar, neurological): 0.7 mg/kg-day
LOAEL ([3]; short-term, duration: 10 days, diet, F, Wistar, neurological): 2.4 mg/kg-day
LOAEL ([1]; subchronic, duration: 3 months, M/F, C57BL/6, immunological): 1.5 mg/kg-day

SMILES: CCCCCCCCOC(=O)c1ccccc1C(=O)OCCCCCCCC [Di-n-octyl phthalate]
LD50 ([4]; acute, oral): 53700 mg/kg
NOAEL ([4]; reproduction developmental, duration: 13 weeks, oral, diet, Sprague-Dawley): 38.8 mg/kg-day
LD50 [5]: 13000 mg/kg
NOAEL ([5]; reproduction developmental, duration: 8 days, gavage, F, CD1): 9780 mg/kg-day
NOAEL (% diet) [5, 12]: 5
NOAEL (% diet) [5, 13]: 5
NOAEL (% diet) [5, 14]: 5
LOAEL ([3]; short-term, duration: 14 days, gavage, M, Sprague-Dawley, hepatic): 1000 mg/kg-day
NOAEL ([3]; subchronic, duration: 13 weeks, diet, M/F, Sprague-Dawley, hepatic): 40.8 mg/kg-day

SMILES: COCCOCCOC [Diethylene glycol dimethyl ether]
LC50 ([4]; acute, inhalation, nose only, Wistar): > 11000 mg/m3
NOAEC ([4]; repeat dose other, inhalation, M): 165 mg/m3
NOAEL ([4]; short-term, duration: 2 weeks, inhalation, nose only, F): 2030 mg/m3
LOAEL ([4]; short-term, duration: 2 weeks, inhalation, nose only, M): 604 mg/m3
NOAEL ([5]; developmental, duration: 9 days, gavage, CD1): 62.8 mg/kg-day
NOAEL ([5]; reproduction developmental, duration: 9 days, gavage, F, CD1): 500 mg/kg-day
NOEL ([6]; subchronic, gavage, M, Sprague-Dawley, Hematology: Hgb decrease, Hct decrease, MCV decrease + Necropsy: Spleen: Enlargement + Histopathology: Liver/Centrilobular- Hypertrophy of …): 2.5 mg/kg-day

LEL [2, 15]: 10 mg/kg-day
SMILES: CC1=C(C)S(=O)(=O)CCS1(=O)=O [Dimethipin]
NOEL [2, 15]: 2 mg/kg-day

SMILES: c1cc[n+]2c(c1)-c1cccc[n+]1CC2 [Diquat]
LEL ([2]; chronic, oral, diet, F, lens opacity and cataracts): 0.72 mg/kg-day
NOEL ([2]; chronic, oral, diet, M/F, lens opacity and cataracts): 0.22 mg/kg-day
LEL ([2]; chronic, oral, diet, M, lens opacity and cataracts): 0.58 mg/kg-day

SMILES: CC(C)C(C(=O)OC(C#N)c1cccc(Oc2ccccc2)c1)c1ccc(Cl)cc1 (stereo unspecified) [Fenvalerate]
LEL [2, 16]: 7.5 mg/kg-day
NOEL [2, 16]: 2.5 mg/kg-day

SMILES: CN(C)C(=O)Nc1cccc(C(F)(F)F)c1 [Fluometuron]
NOAEL ([2]; chronic, duration: 103 weeks, oral, diet, M/F, no effects): 12.5 mg/kg-day

SMILES: CN(C)c1nc(=O)n(C2CCCCC2)c(=O)n1C [Hexazinone]
LEL [2, 17]: 50 mg/kg-day
NOEL [2, 17]: 10 mg/kg-day

SMILES: Cl [Hydrochloric acid]
LOAEL ([2]; chronic, inhalation, M, hyperplasia of nasal mucosa larynx and trachea): 15 mg/m3

SMILES: CC(C)Oc1cc(-n2nc(C(C)(C)C)oc2=O)c(Cl)cc1Cl [Oxadiazon]
LEL [2, 18]: 5 mg/kg-day
NOEL [2, 18]: 0.5 mg/kg-day

SMILES: OCC(CO)(CBr)CBr [Pentaerythritol dibromide]
LD50 ([4]; acute, oral, gavage, Crl:CD1): 1880 mg/kg
LD50 ([4]; acute, oral, gavage, Sprague-Dawley): > 2000 mg/kg
LOAEL ([4]; subchronic, duration: 3 months, oral, diet, Fischer 344): 240 mg/kg-day
LOAEL [4, 19]: 240 mg/kg-day
NOAEL [4, 19]: 120 mg/kg-day
LOAEL ([5]; chronic, duration: 104 weeks, diet, B6C3F1): 57.7 mg/kg-day
NOAEL (% diet) [5, 12]: 0.1
NOAEL (% diet) [5, 13]: 0.1
NOAEL (% diet) [5, 14]: 0.1
LOAEL ([5]; subchronic, duration: 13 weeks, diet, F, B6C3F1): 123 mg/kg-day
LOAEL [5, 20]: 246 mg/kg-day
NOAEL [5, 20]: 123 mg/kg-day
NOAEL [6, 21]: 200 mg/kg-day
NOEL [6, 21]: < 200 mg/kg-day
NOEL ([6]; subchronic, duration: 13 weeks, diet, F, Fischer 344, Body Weight Changes: decrease + Urinalysis: Total protein increase, Urine volume increase, Specific gravity decrease + Blood Chemistry: TP …): 100 mg/kg-day
NOEL ([6]; subchronic, duration: 13 weeks, diet, M/F, Fischer 344, Body Weight Changes: decrease + Urinalysis: Total protein increase, Urine volume increase, Specific gravity decrease + Blood Chemistry: TP …): < 120 mg/kg-day

SMILES: COc1nc(NC(C)C)nc(NC(C)C)n1 [Prometon]
NOAEL ([2]; subchronic, oral, diet, M/F, no effects): 15 mg/kg-day

SMILES: Clc1cc(Cl)cc(C2(CC(Cl)(Cl)Cl)CO2)c1 (stereo unspecified) [Tridiphane]
LEL [2, 22]: 1.67 mg/kg-day
NOEL [2, 22]: 0.33 mg/kg-day
